In patent EP1266900A1, “Carbamates of rapamycin” (Wyeth, priority 1992, dated 1994):
“And” between values parts separate entries of the source, which are not always exact repeats. Equal values may be shown once. Where a name gives a salt, the structure may show the parent alone. Read-outs that look alike come from different tables or passages of the source.

Key:
[1] = tested on: cells from the thymus of normal BALB/c mice; experiment: comitogen-induced thymocyte proliferation procedure (LAF); assay type: cell-based; conditions: for IC50: read-out: LAF IC50; for LAF (ratio): ratio compared with rapamycin, greater than 1 = inhibited thymocyte proliferation to a greater extent than rapamycin
Experimental: (§1) Immunosuppressive activity for representative compounds of this invention was evaluated in an in vitro standard pharmacological test procedure to measure lymphocyte proliferation (LAF) and in an in vivo standard pharmacological test procedure which evaluated the survival time of a pinch skin graft.
The comitogen-induced thymocyte proliferation procedure (LAF) was used as an in vitro measure of the immunosuppressive effects of representative compounds. Briefly, cells from the thymus of normal BALB/c mice are cultured for 72 hours with PHA and IL-1 and pulsed with tritiated thymidine during the last six hours. Cells are cultured with and without various concentrations of rapamycin, cyclosporin A, or test compound. Cells are harvested and incorporated radioactivity is determined. Inhibition of lymphoproliferation is assessed as percent change in counts per minute from non-drug treated controls. For each compound evaluated, rapamycin was also evaluated for the purpose of comparison. An IC50 was obtained for each test compound as well as for rapamycin. […] A positive ratio indicates immunosuppressive activity. […] Calculation of the ratio is shown below. (()^3 H-control thymus cells -)/(()^3 H-control thymus cells -)(()^3 H-rapamycin-treated thymus cells)/(()^3 H-test compound-treated cells) [formula]

pinch skin graft = pinch skin graft survival time, in vivo; design: species or system male C3H(H-2K) recipients; conditions: dose of 4 mg/kg, intraperitoneally or orally, untreated grafts usually rejected within 6-7 days
Experimental: as §1
Representative compounds of this invention were also evaluated in an in vivo test procedure designed to determine the survival time of pinch skin graft from male BAB/c donors transplanted to male C3H(H-2K) recipients. The method is adapted from Billingham R.E. and Medawar P.B., J. Exp. Biol. 28:385-402, (1951). Briefly, a pinch skin graft from the donor was grafted on the dorsum of the recipient as a allograft, and an isograft was used as control in the same region. The recipients were treated with either varying concentrations of test compounds intraperitoneally or orally. Rapamycin was used as a test control. Untreated recipients serve as rejection control. The graft was monitored daily and observations were recorded until the graft became dry and formed a blackened scab. This was considered as the rejection day. The mean graft survival time (number of days ± S.D.) of the drug treatment group was compared with the control group. […] Results are expressed as the mean survival time in days. Untreated (control) pinch skin grafts are usually rejected within 6-7 days. The results shown in Table 1 are based on a dose of 4 mg/kg of test compound. A survival time of 12.0 ± 1.7 days was obtained for rapamycin at 4 mg/kg.

[2] = Mus musculus, Thymocyte, 72 h, thymocytes cultured for 72 hours with PHA and IL-1, tritiated thymidine incorporation
[3] = thymocytes cultured for 72 hours with PHA and IL-1, tritiated thymidine incorporation

Compound | IC50 [1, 2] | LAF (ratio) [1] | Skin Graft (days ± SD), mean survival time (pinch skin graft) | also measured
CO[C@H]1C[C@@H]2CC[C@@H](C)[C@@](O)(O2)C(=O)C(=O)N2CCCC[C@H]2C(=O)O[C@H]([C@H](C)C[C@@H]2CC[C@@H](OC(=O)NCCN(C)C)[C@H](OC)C2)CC(=O)[C@H](C)/C=C(\C)[C@@H](O)[C@@H](OC)C(=O)[C@H](C)C[C@H](C)/C=C/C=C/C=C/1C [Example 3, Rapamycin 42-ester with 2-(dimethylamino)ethyl carbamic acid] | 6.5 nM | 0.34 |  | 
CO[C@H]1C[C@@H]2CC[C@@H](C)[C@@](O)(O2)C(=O)C(=O)N2CCCC[C@H]2C(=O)O[C@H]([C@H](C)C[C@@H]2CC[C@@H](OC(=O)N3CCN(CCCO)CC3)[C@H](OC)C2)CC(=O)[C@H](C)/C=C(\C)[C@@H](O)[C@@H](OC)C(=O)[C@H](C)C[C@H](C)/C=C/C=C/C=C/1C [Example 23, Rapamycin 42-ester with 4-(3-hydroxypropyl)piperazine-1-carboxylic acid] | 3.4 nM | 1.4 |  | 
CO[C@H]1C[C@@H]2CC[C@@H](C)[C@@](O)(O2)C(=O)C(=O)N2CCCC[C@H]2C(=O)O[C@H]([C@H](C)C[C@@H]2CC[C@@H](OC(=O)N3CCOCC3)[C@H](OC)C2)CC(=O)[C@H](C)/C=C(\C)[C@@H](O)[C@@H](OC)C(=O)[C@H](C)C[C@H](C)/C=C/C=C/C=C/1C [Example 26, Rapamycin 42-ester with morpholine-4-carboxylic acid] | 0.2 nM | 6.2 |  | 
Rapamycin 42-ester with 2-(2-aminoethoxy)ethyl carbamic acid [Example 21] |  | 0.6 | 10.4 ± 0.5 days | IC50 [1, 3]: 6 nM
CO[C@H]1C[C@@H]2CC[C@@H](C)[C@@](O)(O2)C(=O)C(=O)N2CCCC[C@H]2C(=O)O[C@H]([C@H](C)C[C@@H]2CC[C@@H](OC(=O)NCCc3ccccn3)[C@H](OC)C2)CC(=O)[C@H](C)/C=C(\C)[C@@H](O)[C@@H](OC)C(=O)[C@H](C)C[C@H](C)/C=C/C=C/C=C/1C [Example 8, Rapamycin 42-ester with 2-(pyridin-2-yl)ethylcarbamic acid methanesulfonate salt] |  |  |  | LAF (ratio) ([1]; methanesulfonate salt): 4.4; IC50 ([1]; thymocytes cultured for 72 hours with PHA and IL-1, tritiated thymidine incorporation, methanesulfonate salt): 0.2 nM
CO[C@H]1C[C@@H]2CC[C@@H](C)[C@@](O)(O2)C(=O)C(=O)N2CCCC[C@H]2C(=O)O[C@H]([C@H](C)C[C@@H]2CC[C@@H](OC(=O)N3CCNCC3)[C@H](OC)C2)CC(=O)[C@H](C)/C=C(\C)[C@@H](O)[C@@H](OC)C(=O)[C@H](C)C[C@H](C)/C=C/C=C/C=C/1C [Example 28, Rapamycin 42-ester with piperazine-1-carboxylic acid] | 4.2 nM | 1.1 |  | 
CO[C@H]1C[C@@H]2CC[C@@H](C)[C@@](O)(O2)C(=O)C(=O)N2CCCC[C@H]2C(=O)O[C@H]([C@H](C)C[C@@H]2CC[C@@H](O)[C@H](OC)C2)CC(=O)[C@H](C)/C=C(\C)[C@@H](O)[C@@H](OC)C(=O)[C@H](C)C[C@H](C)/C=C/C=C/C=C/1C [rapamycin, Rapamycin] |  |  | 12.0 ± 1.7 days | IC50 ([1]; Mus musculus, Thymocyte, 72 h): 2.2 to 9.9 nM
CO[C@H]1C[C@@H]2CC[C@@H](C)[C@@](O)(O2)C(=O)C(=O)N2CCCC[C@H]2C(=O)O[C@H]([C@H](C)C[C@@H]2CC[C@@H](OC(=O)NCc3ccncc3)[C@H](OC)C2)CC(=O)[C@H](C)/C=C(\C)[C@@H](O)[C@@H](OC)C(=O)[C@H](C)C[C@H](C)/C=C/C=C/C=C/1C [Example 14, Rapamycin 42-ester with 4-pyridinylmethyl carbamic acid] | 0.5 nM | 3.8 | 9.17 ± 1.7 days | 
Rapamycin 42-ester with 2-pyridinylmethyl carbamic acid hydrochloride salt [Example 11] |  | 5.0 | 11.40 ± 0.9 days | IC50 [1, 3]: 0.7 nM
CO[C@H]1C[C@@H]2CC[C@@H](C)[C@@](O)(O2)C(=O)C(=O)N2CCCC[C@H]2C(=O)O[C@H]([C@H](C)C[C@@H]2CC[C@@H](OC(=O)NCCCN(CCO)CCO)[C@H](OC)C2)CC(=O)[C@H](C)/C=C(\C)[C@@H](O)[C@@H](OC)C(=O)[C@H](C)C[C@H](C)/C=C/C=C/C=C/1C [Example 24, Rapamycin 42-ester with [3-[bis(2-hydroxyethyl)amino]propyl]carbamic acid] | 40 nM | 0.1 |  | 
CO[C@H]1C[C@@H]2CC[C@@H](C)[C@@](O)(O2)C(=O)C(=O)N2CCCC[C@H]2C(=O)O[C@H]([C@H](C)C[C@@H]2CC[C@@H](OC(=O)NCCO)[C@H](OC)C2)CC(=O)[C@H](C)/C=C(\C)[C@@H](O)[C@@H](OC)C(=O)[C@H](C)C[C@H](C)/C=C/C=C/C=C/1C [Example 2, Rapamycin 42-ester with 2-hydroxyethyl carbamic acid] |  | 1.22 and 1.09 | 10.3 ± 0.8 days | 
CO[C@H]1C[C@@H]2CC[C@@H](C)[C@@](O)(O2)C(=O)C(=O)N2CCCC[C@H]2C(=O)O[C@H]([C@H](C)C[C@@H]2CC[C@@H](OC(=O)N3CCN(C)CC3)[C@H](OC)C2)CC(=O)[C@H](C)/C=C(\C)[C@@H](O)[C@@H](OC)C(=O)[C@H](C)C[C@H](C)/C=C/C=C/C=C/1C [Example 27, Rapamycin 42-ester with 4-methylpiperazine-1-carboxylic acid] | 1.2 nM | 1.2 |  | 
CO[C@H]1C[C@@H]2CC[C@@H](C)[C@@](O)(O2)C(=O)C(=O)N2CCCC[C@H]2C(=O)O[C@H]([C@H](C)C[C@@H]2CC[C@@H](OC(=O)NN)[C@H](OC)C2)CC(=O)[C@H](C)/C=C(\C)[C@@H](O)[C@@H](OC)C(=O)[C@H](C)C[C@H](C)/C=C/C=C/C=C/1C [Example 4, Rapamycin 42-ester with aminocarbamic acid] | 10 nM | 0.45 | 9.8 ± 0.8 days | 
CO[C@H]1C[C@@H]2CC[C@@H](C)[C@@](O)(O2)C(=O)C(=O)N2CCCC[C@H]2C(=O)O[C@H]([C@H](C)C[C@@H]2CC[C@@H](OC(=O)NCCc3ccccn3)[C@H](OC)C2)CC(=O)[C@H](C)/C=C(\C)[C@@H](O)[C@@H](OC)C(=O)[C@H](C)C[C@H](C)/C=C/C=C/C=C/1C [Example 6, Rapamycin 42-ester with 2-(pyridin-2-yl)-ethyl carbamic acid] |  | 5.1 |  | Skin Graft (days ± SD), mean survival time (pinch skin graft; 4 mg/kg): 11.40 ± 0.6 days; IC50 [1, 3]: 0.8 nM
CO[C@H]1C[C@@H]2CC[C@@H](C)[C@@](O)(O2)C(=O)C(=O)N2CCCC[C@H]2C(=O)O[C@H]([C@H](C)C[C@@H]2CC[C@@H](OC(=O)NCc3cccnc3)[C@H](OC)C2)CC(=O)[C@H](C)/C=C(\C)[C@@H](O)[C@@H](OC)C(=O)[C@H](C)C[C@H](C)/C=C/C=C/C=C/1C [Example 12, Rapamycin 42-ester with 3-pyridinylmethyl carbamic acid] | 1.1 nM | 3.8 |  | Skin Graft (days ± SD), mean survival time (pinch skin graft; 4 mg/kg): 9.80 ± 1.1 days
CO[C@H]1C[C@@H]2CC[C@@H](C)[C@@](O)(O2)C(=O)C(=O)N2CCCC[C@H]2C(=O)O[C@H]([C@H](C)C[C@@H]2CC[C@@H](OC(N)=O)[C@H](OC)C2)CC(=O)[C@H](C)/C=C(\C)[C@@H](O)[C@@H](OC)C(=O)[C@H](C)C[C@H](C)/C=C/C=C/C=C/1C [Example 1, Rapamycin 42-ester with carbamic acid] | 1.7 nM | 1.29 | 11.7 ± 0.5 days | 
CO[C@H]1C[C@@H]2CC[C@@H](C)[C@@](O)(O2)C(=O)C(=O)N2CCCC[C@H]2C(=O)O[C@H]([C@H](C)C[C@@H]2CC[C@@H](OC(=O)NCc3ccccn3)[C@H](OC)C2)CC(=O)[C@H](C)/C=C(\C)[C@@H](O)[C@@H](OC)C(=O)[C@H](C)C[C@H](C)/C=C/C=C/C=C/1C [Example 10, Rapamycin 42-ester with 2-pyridinylmethyl carbamic acid] | 0.1 nM | 3.8 | 10.17 ± 1.0 days | 
CO[C@H]1C[C@@H]2CC[C@@H](C)[C@@](O)(O2)C(=O)C(=O)N2CCCC[C@H]2C(=O)O[C@H]([C@H](C)C[C@@H]2CC[C@@H](OC(=O)NO)[C@H](OC)C2)CC(=O)[C@H](C)/C=C(\C)[C@@H](O)[C@@H](OC)C(=O)[C@H](C)C[C@H](C)/C=C/C=C/C=C/1C [Example 5, Rapamycin 42-ester with hydroxycarbamic acid] | 2.1 nM | 1.19 |  | 
